# Test results reported in patent publication US20120238488A1, “COMPOUNDS AND METHODS FOR TREATING NEOPLASIA” (priority 2009, published 2012).
# Key:
# [1] = system: DU145 prostate cancer cells; assay: MTT assay, combination with paclitaxel; conditions: DU145, FIG. 1E
# Protocol: Cell proliferation/viability was assessed by the MTT [3-(4,5-dimethylthiazol-2-yl)-2,5-diphenyltetrazolium bromide] assay, which is commercially available (Sigma, St. Louis, Mo.). Cells were cultured in 96-well plates for twenty-four hours (7-10.000 cells/well) and incubated with various concentrations of the compounds of the invention in serum-containing medium (or left untreated) for seventy-two hours. At the end of incubation, the medium was aspirated and MTT dissolved in RPMI 1640 w/o phenol red was added to each well to a final concentration of 0.25 mg/ml. After four hours incubation in the dark (37° C., 5% CO2) the supernatant was discarded. The converted dye (blue formazan crystals) was solubilized by adding 200 μl dimethylsulfoxide to each well. Absorbance was measured at 550 nm with reference at 655 nm using a spectrophotometer with the respective filters. All assays were performed in triplicate.
# [2] = system: membrane androgen receptor; assay: Membrane androgen receptor competition assay, DU145 cells; assay type: binding; conditions: 40 μM compound 30 minutes before 40 μM testosterone-HSA-FITC, FIGS. 3B, 3C
# Source text: To assess whether compounds of the invention were capable of binding directly to the membrane androgen receptor, a fluorescent-based assay was used to measure the ability of a given compound to preclude binding of a fluorescent mAR ligand (testosterone-HSA-FITC conjugates) to its receptor in LNCaP and DU145 cells (see Kampa, M et al, 2002, Faseb J 16:1429-1431, and PCT/U52007/007913).
# The detection of membrane androgen receptors using fluorescent testosterone-serum albumin conjugates was performed as described by Kampa, M et al, 2002, Faseb J 16:1429-1431, with minor modifications. Briefly, LNCaP or DU145 prostate cancer cells were cultured on 0.1% gelatin-coated glass coverslips in RPMI 1640 medium supplemented with 2 mM L-Glutamine, 10% Fetal Bovine Serum and 1% Penicillin/Streptomycin for at least 48 hours until reaching 70% confluency. After a 24 hour serum starvation period, cells were incubated with 40 μM testosterone-HSA-FITC for 1 hour at room temperature. The cells were then washed three times with phosphate buffered saline (PBS) and fixed with 3.7% formaldehyde in PBS for 5 minutes at room temperature. Human serum albumin-FITC was used as a control for background staining. […] Coverslips were mounted on slides by using the Slow Fade/Antifade Reagent (Molecular Probes) and studied under a LEICA DMLB microscope, equipped with the appropriate fluorescence filters and a Leica DC 300F camera. Specimens were analyzed using the Leica FW4000 computer program.
# To determine the capacity of a given compound to preclude binding of fluorescent testosterone-HSA conjugates (TAC) to the membrane androgen receptor, starved LNCaP or DU145 cells on coverslips prepared as described above were pre-treated with 40 μM of the indicated compound for 30 minutes prior to the addition of testosterone-HSA-FITC. […] Specimens were prepared and analyzed as described above. Compounds binding to the membrane androgen receptor preclude binding of fluorescent testosterone-HSA conjugates to their target and abolish membrane-specific fluorescence.
# [3] = system: A549 xenografts (lung carcinoma); assay: A549 xenograft anti-tumor activity; assay type: in vivo, Nod/Scid mice; conditions: for DT/DC / post mortem analysis on excised tumors: tumor growth inhibition: A549 xenografts, compound 56 20 mgk, paclitaxel 18 mgk; for DT/DC: day 24, intraperitoneal
# Protocol: All administrations were intraperitoneal.
# At day 20 post inoculation (dpi), mean tumor volume was measured at 117.6 mm^3.
# Compound 56 was administered intraperitoneallly using a [(QD×5;2) ×5] scheme. Paclitaxel, used as a positive control, was injected twice weekly for 5 cycles (Tuesday & Friday).
# [4] = system: PC-3 xenografts (prostate adenocarcinoma, grade IV); assay: PC-3 xenograft anti-tumor activity
# Protocol: Compound 56 was tested for its anti-tumor activity in PC-3 and A549 xenografts. To generate xenografts in mice, exponentially growing cultures of approximately 10^6 PC-3 cells (prostate adenocarcinoma, grade IV) or A549 cells (lung carcinoma) were injected subcutaneously according to the British practice of bilateral trocar implants at the axillary region of 6-8 weeks old male (PC-3 cells) or female (A549 cells) Nod/Scid mice. The two tumor cell inoculums were added together for each mouse, thus producing a tumor burden per mouse value for data analysis. The advantage of the British system is reduced mouse-to-mouse variability and, thus, the ability to decrease the total number of animals per group, with five or six being sufficient for accurate data analysis of tumor response and evaluation of toxicities.
# Tumor volume was calculated according to the formula [(axb2)/2], where a=length and b=width of the tumor as measured with a vernier's caliper (measurements were performed twice a week). All administrations were intraperitoneal. Treated animals received a single injection according to the schedule described for each study (see below). In addition to tumor volume, the parameter, % DT/DC, was calculated, where DT=T−Do and DC=C−Do (Do is the average tumor volume at the beginning of the treatment; T and C are the volumes of treated and untreated tumors, respectively, at a specified day). Optimal DT/DC value was used as a measure of drug activity. Losses of weight, neurological disorders and behavioral and dietary changes were also recorded as indicators of toxicity (side effects). The experiment was terminated when tumor size in untreated animals reached a volume of about 1000-1500 mm^3. All animals were treated according to Greek laws (2015/92), guidelines of the European Union and the European council (86/609 and ETS123, respectively), and Compliance with Standards for Human Care and Use of Laboratory Animals, NIH, USA (Assurance No. A5736-01).
# In order to develop PC-3 xenografts, male mice 6-8 weeks old were inoculated bilateral at the two axilla regions at day 0.
# Compound 56 was administered intraperitoneallly at the following dpis: d13, d14, d15, d16, d17, d20, d21, d22, d23, d24, d27, d28, 29, d30.
SMILES,enhancement of the cytotoxic action of paclitaxel ([1]; 1 or 2 uM compound 12 added to paclitaxel 20 nM),membrane fluorescence of TAC-FITC after pre-treatment (binding to mAR precluded) [2],cytotoxic activity alone ([1]; paclitaxel 20 nM),DT/DC [3],post mortem analysis on excised tumors: tumor growth inhibition [3],post mortem analysis on excised PC-3 tumors: tumor growth inhibition ([4]; 17 mgk intraperitoneal),"toxicity (body weight, deaths) ([4]; PC-3 xenograft mice, compound 56 17 mgk, digoxin 2 mgk, intraperitoneal)","metastases versus control group (post mortem) ([4]; PC-3 xenografts, 17 mgk intraperitoneal)","optimal DT/DC ([4]; PC-3 xenografts, 17 mgk intraperitoneal, day 34, p=6×10^−6) [%]","anti-tumor activity in PC-3 xenografts (FIG. 2A) ([4]; mouse, in vivo)","weight changes ([3]; A549 xenograft mice, 20 mgk intraperitoneal)","anti-tumor activity in A549 xenografts (FIG. 2B) ([3]; mouse, in vivo)"
"C[C@]12CCC(=NOCCN)C=C1CCC1C2CC[C@]2(C)C(=O)CCC12 (stereo partly drawn) [Compound 12, (10R,13S)-3-(2-aminoethoxyimino)-10,13-dimethyl-2,3,7,8,9,10,11,12,13,14,15,16-dodecahydro-1H-cyclopenta[a]phenanthren-17(6H)-one]",clearly enhances the cytotoxic action,devoid of membrane fluorescence,–,–,–,–,–,–,–,–,–,–
"CC(=O)O[C@H]1C(=O)[C@@]2(C)[C@H]([C@H](OC(=O)c3ccccc3)[C@]3(O)C[C@H](OC(=O)[C@H](O)[C@@H](NC(=O)c4ccccc4)c4ccccc4)C(C)=C1C3(C)C)[C@]1(OC(C)=O)CO[C@@H]1C[C@@H]2O [Paclitaxel, reference compound]",–,–,limited cytotoxic activity,"−46,68%",statistical significant tumor growth inhibition,–,–,–,–,–,–,–
"C[C@]12CCC(=NOC3CCNC3)CC1CCC1C2CC[C@]2(C)C(=O)CCC12 (stereo partly drawn) [Compound 56, (10S,13S)-10,13-dimethyl-3-(pyrrolidin-3-yloxyimino)tetradecahydro-1H-cyclopenta[a]phenanthren-17(2H)-one]",–,devoid of membrane fluorescence,–,−10.47%,statistical significant tumor growth inhibition,statistical significant tumor growth inhibition,not toxic,suppression of bone lymph node and front axilla metastases,48.71,has anti-tumor activities,no significant weight changes,has anti-tumor activities
